Reference: the Deep4Chem optical property database

Test: solvent given as SMILES

Q: Which absorption maximum (in C1CCOC1) does the source give for FC(F)(F)C(F)(F)C(F)(F)C1=NC2=C(Oc3ccccc3)C=C3c4cc(Oc5ccccc5)c5nc(C(F)(F)C(F)(F)C(F)(F)F)nc6c(Oc7ccccc7)cc(c4c56)=C4C=C(Oc5ccccc5)C(=N1)C2C34 (stereo not given) here?
A: 498 nm

Q: With N#Cc1nc2c(nc1C#N)C1c3ccc(N(c4ccccc4)c4ccccc4)cc3C2c2ccc(N(c3ccccc3)c3ccccc3)cc21 as the molecule, how does the absorption maximum (in C1CCCCC1) read?
A: 408 nm

Q: What about the absorption maximum (in CC#N) of the same molecule?
A: 378 nm

Q: And the absorption maximum (in Cc1ccccc1)?
A: 391 nm

Q: What about the absorption maximum (in ClCCl) of the same molecule?
A: 409 nm

Q: For CCC1=C(C)C2=C(c3ccc(-c4c5ccccc5c(-c5ccccc5)c5ccccc45)cc3)c3c(C)c(CC)c(C)n3[B-](F)(F)[N+]2=C1C, which absorption maximum (in CC#N) is on record?
A: 523 nm

Q: And the absorption maximum (in CCCCCC)?
A: 526 nm

Q: What about the absorption maximum (in CCO) of the same molecule?
A: 525 nm

Q: And the absorption maximum (in CN(C)C=O)?
A: 526 nm

Q: And the absorption maximum (in Cc1ccccc1)?
A: 529 nm

Q: And the absorption maximum (in ClCCl)?
A: 527 nm

Q: With c1ccc2c(c1)Oc1ccccc1N2c1ccc2c(c1)c1ccccc1n1ccnc21 as the molecule, how does the absorption maximum (in Cc1ccccc1) read?
A: 376 nm

Q: What does the source list for COC(=O)c1cc(=O)n(C)c2cc(-c3ccccc3)sc12?
A: absorption maximum (in CC#N): 392 nm; absorption maximum (in ClCCl): 394 nm

Q: With CN1C(=CC2=C([O-])C(=Cc3oc4ccccc4[n+]3C)C2=O)C(C)(C)c2ccccc21 as the molecule, how does the absorption maximum (in ClC(Cl)Cl) read?
A: 608 nm

Q: For F[Si](c1ccccc1)(c1ccccc1)c1cccc2ccccc12, which absorption maximum (in C1CCOC1) is on record?
A: 286 nm

Q: For c1ccc(-c2ccc(-c3ccc(-c4ccccc4)cc3)cc2)cc1, which absorption maximum (in C1CCOC1) is on record?
A: 299 nm

Q: What about the absorption maximum (in C1COCCO1) of the same molecule?
A: 310 nm

Q: For CCCCCC(CC)C1(C(CC)CCCCC)c2ccccc2-c2ccc(C#Cc3cc(C#Cc4ccc5c(c4)C(C(CC)CCCCC)(C(CC)CCCCC)c4ccccc4-5)c4ccc5c(C#Cc6ccc7c(c6)C(C(CC)CCCCC)(C(CC)CCCCC)c6ccccc6-7)cc(C#Cc6ccc7c(c6)C(C(CC)CCCCC)(C(CC)CCCCC)c6ccccc6-7)c6ccc3c4c65)cc21 (stereo not given), which absorption maximum (in C1CCCCC1) is on record?
A: 486 nm

Q: And the absorption maximum (in C1CCOC1)?
A: 492 nm

Q: What about the absorption maximum (in CCOC(C)=O) of the same molecule?
A: 488 nm

Q: And the absorption maximum (in CN(C)C=O)?
A: 496 nm

Q: And the absorption maximum (in Cc1ccccc1)?
A: 488 nm

Q: What about the absorption maximum (in ClC(Cl)Cl) of the same molecule?
A: 491 nm

Q: And the absorption maximum (in ClCCl)?
A: 492 nm

Q: With O=C(NCc1cc(=O)oc2cc([O-])c(Br)cc12)c1cccnc1 as the molecule, how does the absorption maximum (in O) read?
A: 370 nm

Q: For CO, which absorption maximum (in CCCCCC) is on record?
A: 177 nm

Q: With c1ccc(N(c2ccccc2)c2ccc(-c3ccc4c(c3)C3(c5cc(-c6ccc(N(c7ccccc7)c7ccccc7)cc6)ccc5O4)c4ccccc4-c4ccccc43)cc2)cc1 as the molecule, how does the absorption maximum (in ClCCl) read?
A: 345 nm

Q: Which results are given for Cc1c2ccncc2c(C)c2c1[nH]c1ccccc12?
A: absorption maximum (in C1CCCCC1): 290 nm; absorption maximum (in C1CCOC1): 293.3 nm; absorption maximum (in C1COCCO1): 292.5 nm; absorption maximum (in CC#N): 291.5 nm; absorption maximum (in CC(C)(C)O): 294.5 nm; absorption maximum (in CC(C)O): 294.5 nm; absorption maximum (in CCC(C)(C)O): 294.5 nm; absorption maximum (in CCCCCC): 289.5 nm; absorption maximum (in CCCCO): 295 nm; absorption maximum (in CCO): 294 nm; absorption maximum (in CCOC(C)=O): 291.5 nm; absorption maximum (in CCOCC): 291.5 nm; absorption maximum (in CN(C)C=O): 293.5 nm; absorption maximum (in CO): 294 nm; absorption maximum (in CS(C)=O): 295 nm; absorption maximum (in Cc1ccccc1): 293 nm

Q: For c1ccc(C2=C(c3ccccc3)c3cccc4c3c(cc3nc5cc(-c6ccccc6)c(-c6ccccc6)cc5nc34)O2)cc1, which absorption maximum (in ClCCl) is on record?
A: 507 nm

Q: For CC(C)(C)c1ccc(Oc2cc3c4c(cc(Oc5ccc(C(C)(C)C)cc5)c5c6c(Oc7ccc(C(C)(C)C)cc7)cc7c8c(cc(Oc9ccc(C(C)(C)C)cc9)c(c2c45)c86)C(=O)OC7=O)C(=O)OC3=O)cc1, which absorption maximum (in ClC(Cl)Cl) is on record?
A: 581 nm

Q: What does the source list for Clc1ncc(-c2c3ccccc3c(-c3cnc(Cl)nc3)c3ccccc23)cn1?
A: absorption maximum (in CCO): 394 nm; absorption maximum (in ClCCl): 396 nm

Q: With CCN(CC)c1ccc(/C=N/CC/N=C/c2ccc(N(CC)CC)cc2O)c(O)c1 as the molecule, how does the absorption maximum (in CC#N) read?
A: 339 nm

Q: And the absorption maximum (in CN(C)C=O)?
A: 353 nm

Q: What about the absorption maximum (in ClCCl) of the same molecule?
A: 344 nm

Q: With c1ccc(-c2nc(-c3ccc(N4CCCC4)cc3)cc(-c3ccc4ccccc4c3)n2)cc1 as the molecule, how does the absorption maximum (in ClC(Cl)Cl) read?
A: 430 nm

Q: For C/C(=C\c1ccccc1)c1nc2ccccc2o1, which absorption maximum (in C1CCCCC1) is on record?
A: 315 nm

Q: And the absorption maximum (in CO)?
A: 315 nm

Q: For CCCCCN(c1ccccc1)c1ccc2c(c1)C(CC)(CC)c1cc(/C=C/c3ccc(/C=C(\C#N)C(=O)O)s3)ccc1-2, which absorption maximum (in C1CCOC1) is on record?
A: 456 nm

Q: What about the absorption maximum (in C1COCCO1) of the same molecule?
A: 464 nm

Q: What about the absorption maximum (in CC#N) of the same molecule?
A: 430 nm

Q: What about the absorption maximum (in CC(C)=O) of the same molecule?
A: 464 nm

Q: What about the absorption maximum (in CCOC(C)=O) of the same molecule?
A: 460 nm

Q: What about the absorption maximum (in CN(C)C=O) of the same molecule?
A: 418 nm

Q: And the absorption maximum (in CS(C)=O)?
A: 430 nm

Q: And the absorption maximum (in ClCCl)?
A: 470 nm

Q: Which absorption maximum (in Cc1ccccc1) does the source give for COc1ccc2c(c1)c1cc(OC)ccc1n2-c1cccc(-n2c3ccc(OC)cc3c3cc(OC)ccc32)c1C#N here?
A: 391 nm

Q: Which absorption maximum (in C1CCCCC1) does the source give for CCOC(=O)c1cc(C)n2nc(-c3ccccc3)ccc12 here?
A: 390 nm

Q: With CC(C)(C)c1ccc2c(c1)c1cc(C(C)(C)C)ccc1n2-c1ccc2oc3nc4oc5ccc(C(F)(F)F)cc5c4cc3c2c1 as the molecule, how does the absorption maximum (in C1CCCCC1) read?
A: 343 nm

Q: And the absorption maximum (in C1CCOC1)?
A: 338 nm

Q: And the absorption maximum (in CC#N)?
A: 336 nm

Q: What about the absorption maximum (in CS(C)=O) of the same molecule?
A: 337 nm

Q: What about the absorption maximum (in Cc1ccccc1) of the same molecule?
A: 343 nm

Q: And the absorption maximum (in ClC(Cl)Cl)?
A: 345 nm
